Laboratory results as given in publication PMC12355554, “Development of novel mitochondrial pyruvate carrier inhibitors for breast cancer treatment” (The Journal of Biological Chemistry, 2025).

Key:
[1] = target: T1, mitochondrial pyruvate carrier (MPC) (Mus musculus, UniProt P63030+Q9D023); assay: Seahorse XFe96 Pyr-driven respiration in rPFO-permeabilized 4T1 cells; format: cell-based, murine; conditions: read-out: IC50, inhibition of Pyr-driven respiration
T1 construct: host or cells: 4T1 murine breast cancer cells, rPFO-permeabilized
T1 sequence (P63030 1-109): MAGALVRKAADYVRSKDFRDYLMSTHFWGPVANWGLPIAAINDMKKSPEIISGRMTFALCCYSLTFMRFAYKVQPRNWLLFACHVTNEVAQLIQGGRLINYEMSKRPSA
T1 sequence (Q9D023 1-127): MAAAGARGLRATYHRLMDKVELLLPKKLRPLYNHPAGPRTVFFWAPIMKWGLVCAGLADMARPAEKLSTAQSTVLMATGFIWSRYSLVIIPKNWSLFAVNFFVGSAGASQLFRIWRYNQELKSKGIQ
Method: After validating the ability of rPFO to permeabilize 4T1 cells without damaging mitochondria, we sought to investigate the ability of candidate compounds to inhibit Pyr-driven respiration in these cells (Fig. 1, D–G). In this regard, 4T1 cells were seeded in Seahorse XFe96 well plates and were incubated to reach confluence (∼18–24 h) in growth media (+serum). Growth media were then aspirated, and cells were washed with MAS buffer to remove serum and endogenous metabolic substrates. Serum- and substrate-starved cells were then incubated for equilibration in MAS buffer in a non-CO2 incubator. Inhibitors, rPFO, and substrate milieus were prepared in MAS buffer to be injected in succession to allow for real-time observation of the effects of compound-treated cultures on oxygen consumption rates (OCRs) when compared with vehicle (dimethyl sulfoxide [DMSO])-treated cells. Equilibrated intact cells were allowed to establish basal respiratory rates, followed by the injection of candidate compounds C1 to C4 at varying dose-titrated concentrations, respectively, and acute decreases in OCR were observed (Fig. 1, D–G). Compound exposure was performed in intact cells to avoid influence of rPFO on acute cellular targets. Cells were then exposed to rPFO, followed by the carbonyl cyanide-p-trifluoromethoxyphenylhydrazone (FCCP)–stimulated Pyr substrate milieu, which consisted of Pyr, malate (Mal), and dichloroacetate (DCA) to fuel uninhibited Pyr respiratory flux and maximal respiration. Mal and DCA were included to allow for continuous TCA cycle function without acetyl CoA feedback–mediated inhibition (Mal) or Pyr dehydrogenase–regulated inhibition (DCA) of Pyr uptake. Here, we observed a dose-dependent inhibition of Pyr-driven respiration in cells treated with the candidate compounds, allowing for logarithmic dose–response curves to be generated, and 50% inhibitory concentrations (IC50) to be calculated (Fig. 1, D–G). Finally, complex I and […] were injected to halt respiration and end the assay. […] In this regard, the fluoro-aminocarboxycoumarin derivative C4 has been designated as the lead candidate for further investigation.
Permeabilized cell assays were performed using rPFO as described previously. 4T1 cells were seeded (20,000 cells/well) onto Seahorse XFe96 well plates and incubated overnight in growth media at 37 °C and 5% CO2 for adherence. On the day of the assay, growth media were aspirated and replaced with MAS buffer (70 mM sucrose, 220 mM mannitol, 10 mM potassium phosphate monobasic, 5 mM magnesium chloride, 2 mM Hepes, and 1 mM EGTA) after 3X rinse of growth media to remove serum and endogenous metabolic substrates, and incubated at 37 °C in a non-CO2 incubator. Respective inhibitor and substrate milieu's were prepared in MAS buffer for port injections A–D at 8X, 9X, 10X, and 11X the target cell concentrations to account for intrinsic dilution factor of in situ injections of each port. […] Final substrate concentrations for specific tests were as follows: (5 mM Pyr , 0.5 mM Mal, 2 mM DCA; 10 mM glutamate, 0.5 mM Mal, 2 mM DCA; 10 mM succinate, 2 μM rotenone; 20 mM methyl Pyr, 5 mM Pyr, 0.5 mM Mal, and 2 mM DCA). ATP rate assays and mitochondrial stress tests were performed according to the manufacturer's (Agilent) instructions.

4T1 = assay: Sulforhodamine B cell proliferation inhibition assay, 4T1; format: cell-based, murine; conditions: Mus musculus, 72 h, average ± SEM
Method: Cells were seeded (3 × 10^4 cells/well) in 48-well plates and incubated overnight (37 °C, 5% CO2). Test compounds were then exposed to cells in duplicate in serial dilution fashion and were incubated for an additional 72 h (37 °C, 5% CO2). Media were then aspirated, and cells were washed three times with cold PBS and left overnight to dry fix. […] Dyed cells were then lysed with Tris (10 mM, pH 10), and absorbance readings were recorded at 540 nm of each well. Treatment absorbances are taken as percentages of the average untreated absorbances and plotted against log(concentration) in GraphPad Prism 10 to generate effective concentration values where 50% of the cells are not proliferating (EC50).

[2] = Intrinsic CL in human liver microsomes; format: in vitro ADME
[3] = General tolerability dose escalation, intraperitoneal, CD-1 mice; format: in vivo
Method: After obtaining PK parameters of C5, we carried out a general tolerability dose escalation study via intraperitoneal injection to determine a maximum tolerated dose for future tumor efficacy studies (Fig. S3B). […] In CD-1 mice, dosing began at 5 mg/kg for 7 days. After 7 days, dosing was increased to 6 mg/kg; however, at this dose, there were acute respiratory effects and lethargy observed in the mice deeming it a toxic dose.
Dosing was increased to 6 mg/kg on day 8, but significant acute respiratory effects were observed indicating toxicity. Due to this acute effect, the study was terminated, and all mice were euthanized. The study was carried out following Institutional Animal Care and Use Committee protocol 2211-40546A.

[4] = Maximum tolerated dose study, oral dosing, 21 days; format: in vivo, severe combined immunodeficient mice
[5] = target: T1, mitochondrial pyruvate carrier (MPC); assay: Pyr-driven respiration in permeabilized 67NR cells; format: cell-based, murine
4T1 tumor = assay: Tumor efficacy study in a 4T1 syngraft; conditions: 5 mg/kg daily for 11 days
67NR tumor = assay: Tumor efficacy study in a 67NR syngraft; conditions: 14-day treatment

With `CN(Cc1ccc(C(F)(F)F)cc1)c1ccc2cc(C(=O)O)c(=O)oc2c1.NC(CO)(CO)CO` [C5, 1,3-dihydroxy-2-(hydroxymethyl)propan-2-aminium 7-(methyl(4-(trifluoromethyl)benzyl)amino)-2-oxo-2H-chromene-3-carboxylate] the IC50 [1] was 0.0144 ± 0.0005 µM, the EC50 (4T1) was 67.9 ± 7.3 µM and the “increase in Clint compared with C3” value ([2]; human liver microsomes) was “two-fold”. For the same compound, the half-life ([2]; human, liver microsomes, exceeding the experimental endpoints) was over 2 h, the “toxic dose (acute respiratory effects and lethargy)” value [3] was 6 mg/kg and the MTD at 7 days ([3]; female, mouse, in vivo, ip, once daily 7 days, read-out: maximum tolerated dose) was 5 mg/kg. For the same compound, the MTD at 21 days ([4]; female, BALB/c, mouse, in vivo, oral, daily for 21 days) was 40 mg/kg, the “changes in body weight or behavior” value ([4]; oral 10, 20, 40 mg/kg daily for 21 days) was “not any significant changes” and the “effect on pyruvate driven respiration” value [5] was “inhibits”. For the same compound, the mouse body weight (4T1 tumor) was “remained constant”, the “reduction in tumor mass compared with vehicle” value (4T1 tumor; BALB/c) was about 41% and the “reduction in tumor volume compared with vehicle” value (4T1 tumor; BALB/c) was about 20%. The mouse body weight (67NR tumor) was “remained stable”.
